For 20 substances, EC50 results are on record in patent publication US10150760B2, “Compounds for use in preparing heterocyclic triazole agonists of the APJ receptor” (AMGEN INC., priority 2016, dated 2018).

The term EC50 denotes the concentration at which the effect is half-maximal.

Sequence of human APJ receptor (P35414 whole entry): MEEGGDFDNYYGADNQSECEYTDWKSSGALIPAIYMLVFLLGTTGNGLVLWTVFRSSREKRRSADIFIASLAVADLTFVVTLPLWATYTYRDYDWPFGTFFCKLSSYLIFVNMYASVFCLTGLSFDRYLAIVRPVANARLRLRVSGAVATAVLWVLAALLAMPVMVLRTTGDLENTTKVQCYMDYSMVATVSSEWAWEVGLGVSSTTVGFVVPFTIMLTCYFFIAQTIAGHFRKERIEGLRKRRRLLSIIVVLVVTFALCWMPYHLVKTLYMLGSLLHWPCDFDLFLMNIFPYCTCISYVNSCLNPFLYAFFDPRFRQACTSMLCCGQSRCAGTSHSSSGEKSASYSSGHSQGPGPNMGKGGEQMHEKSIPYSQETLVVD

The assay concerns the target human APJ receptor (Homo sapiens (Human), UniProt P35414). Briefly: [35S]GTPγS binding assay on membranes from CHO cells stably expressing human APJ receptor. Particulars: read-out: Activity hAPJ SPA EC50 IP. Type of assay: biochemical. In a few lines:
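Membranes from CHO cells stably expressing human APJ incubated with ligand, 0.2 nM [35S]GTPγS and WGA SPA beads in HEPES pH 7.5 with 5 mM MgCl2, 200 mM NaCl, 3 μM GDP, 90 min at RT. Nonspecific binding defined with 100 μM GTPγS; EC50 by non-linear regression.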
As for “(2S,3R)-3-(5-chloropyrimidin-2-yl)-N-(4-(4,6-dimethoxypyrimidin-5-yl)-5-((R)-5,5-dimethyltetrahydrofuran-3-yl)-4H-1,2,4-triazol-3-yl)butane-2-sulfonamide or (2S,3R)-3-(5-chloropyrimidin-2-yl)-N-(4-(4,6-dimethoxypyrimidin-5-yl)-5-((S)-5,5-dimethyltetrahydrofuran-3-yl)-4H-1,2,4-triazol-3-yl)butane-2-sulfonamide [Example 318.0]”, the EC50 worked out at 13 nM.

For the substance “(2S,3R)-N-(4-(1,3-dimethoxy-2-propanyl)-5-((2R,5R)-5-methyltetrahydro-2-furanyl)-4H-1,2,4-triazol-3-yl)-3-(5-fluoro-2-pyrimidinyl)-2-butanesulfonamide or (2S,3R)-N-(4-(1,3-dimethoxy-2-propanyl)-5-((2S,5S)-5-methyltetrahydro-2-furanyl)-4H-1,2,4-triazol-3-yl)-3-(5-fluoro-2-pyrimidinyl)-2-butanesulfonamide [Example 368.0]”, the EC50 came to 100 nM.

Take “(2S,3R)-N-(4-(1,3-dimethoxy-2-propanyl)-5-((2R,5R)-5-methyltetrahydro-2-furanyl)-4H-1,2,4-triazol-3-yl)-3-(5-fluoro-2-pyrimidinyl)-2-butanesulfonamide or (2S,3R)-N-(4-(1,3-dimethoxy-2-propanyl)-5-((2S,5S)-5-methyltetrahydro-2-furanyl)-4H-1,2,4-triazol-3-yl)-3-(5-fluoro-2-pyrimidinyl)-2-butanesulfonamide [Example 369.0]”: the EC50 amounted to 21 nM.

Turning to “(2S,3R)-N-(4-(1,3-dimethoxy-2-propanyl)-5-((2R,5R)-5-methyltetrahydro-2-furanyl)-4H-1,2,4-triazol-3-yl)-3-(5-methoxy-2-pyrazinyl)-2-butanesulfonamide or (2S,3R)-N-(4-(1,3-dimethoxy-2-propanyl)-5-((2S,5S)-5-methyltetrahydro-2-furanyl)-4H-1,2,4-triazol-3-yl)-3-(5-methoxy-2-pyrazinyl)-2-butanesulfonamide [Example 376.0]”, the EC50 was determined as 120 nM.

Turning to “(2S,3R)-N-(4-(1,3-dimethoxy-2-propanyl)-5-((2R,5R)-5-methyltetrahydro-2-furanyl)-4H-1,2,4-triazol-3-yl)-3-(5-methoxy-2-pyrazinyl)-2-butanesulfonamide or (2S,3R)-N-(4-(1,3-dimethoxy-2-propanyl)-5-((2S,5S)-5-methyltetrahydro-2-furanyl)-4H-1,2,4-triazol-3-yl)-3-(5-methoxy-2-pyrazinyl)-2-butanesulfonamide [Example 377.0]”, the EC50 was 24 nM.

As to “(2S,3R)-N-(4-(1,3-dimethoxy-2-propanyl)-5-((2R,5R)-5-methyltetrahydro-2-furanyl)-4H-1,2,4-triazol-3-yl)-3-(5-methoxy-2-pyrimidinyl)-2-butanesulfonamide or (2S,3R)-N-(4-(1,3-dimethoxy-2-propanyl)-5-((2S,5S)-5-methyltetrahydro-2-furanyl)-4H-1,2,4-triazol-3-yl)-3-(5-methoxy-2-pyrimidinyl)-2-butanesulfonamide [Example 370.0]”, the EC50 came out at 620 nM.

“(2S,3R)-N-(4-(1,3-dimethoxy-2-propanyl)-5-((2R,5R)-5-methyltetrahydro-2-furanyl)-4H-1,2,4-triazol-3-yl)-3-(5-methoxy-2-pyrimidinyl)-2-butanesulfonamide or (2S,3R)-N-(4-(1,3-dimethoxy-2-propanyl)-5-((2S,5S)-5-methyltetrahydro-2-furanyl)-4H-1,2,4-triazol-3-yl)-3-(5-methoxy-2-pyrimidinyl)-2-butanesulfonamide [Example 371.0]”: the EC50 amounted to 15 nM.

Take “(2S,3R)-N-(4-(2,6-bis((trideutero)methyloxy)phenyl)-5-((3R)-tetrahydro-3-furanyl)-4H-1,2,4-triazol-3-yl)-3-(5-chloro-2-pyrimidinyl)-2-butanesulfonamide or (2S,3R)-N-(4-(2,6-bis((trideutero)methyloxy)phenyl)-5-((3S)-tetrahydro-3-furanyl)-4H-1,2,4-triazol-3-yl)-3-(5-chloro-2-pyrimidinyl)-2-butanesulfonamide [Example 391.0]”: the EC50 amounted to 15 nM.

As for “(2S,3R)-N-(4-(2,6-bis((tridutero)methyloxy)phenyl)-5-((3R)-tetrahydro-3-furanyl)-4H-1,2,4-triazol-3-yl)-3-(5-chloro-2-pyrimidinyl)-2-butanesulfonamide or (2S,3R)-N-(4-(2,6-bis((trideutero)methyloxy)phenyl)-5-((3S)-tetrahydro-3-furanyl)-4H-1,2,4-triazol-3-yl)-3-(5-chloro-2-pyrimidinyl)-2-butanesulfonamide [Example 392.0]”, the EC50 is 25 nM.

For the substance “(2S,3R)-N-(4-(2,6-difluorophenyl)-5-((3R)-tetrahydro-3-furanyl)-4H-1,2,4-triazol-3-yl)-3-(5-methyl-2-pyrimidinyl)-2-butanesulfonamide or (2S,3R)-N-(4-(2,6-difluorophenyl)-5-((3S)-tetrahydro-3-furanyl)-4H-1,2,4-triazol-3-yl)-3-(5-methyl-2-pyrimidinyl)-2-butanesulfonamide [Example 20.0]”, the EC50 was 160 nM.

As for “(2S,3R)-N-(4-(2,6-difluorophenyl)-5-((3R)-tetrahydro-3-furanyl)-4H-1,2,4-triazol-3-yl)-3-(5-methyl-2-pyrimidinyl)-2-butanesulfonamide or (2S,3R)-N-(4-(2,6-difluorophenyl)-5-((3S)-tetrahydro-3-furanyl)-4H-1,2,4-triazol-3-yl)-3-(5-methyl-2-pyrimidinyl)-2-butanesulfonamide [Example 21.0]”, the EC50 was determined as 110 nM.

In the case of “(2S,3R)-N-(4-(2,6-difluorophenyl)-5-((3S)-tetrahydro-2H-pyran-3-yl)-4H-1,2,4-triazol-3-yl)-3-(5-methyl-2-pyrimidinyl)-2-butanesulfonamide or (2S,3R)-N-(4-(2,6-difluorophenyl)-5-((3R)-tetrahydro-2H-pyran-3-yl)-4H-1,2,4-triazol-3-yl)-3-(5-methyl-2-pyrimidinyl)-2-butanesulfonamide [Example 22.0]”, the concentration for a half-maximal effect (EC50) was determined as 260 nM.

“(2S,3R)-N-(4-(2,6-difluorophenyl)-5-((3S)-tetrahydro-2H-pyran-3-yl)-4H-1,2,4-triazol-3-yl)-3-(5-methyl-2-pyrimidinyl)-2-butanesulfonamide or (2S,3R)-N-(4-(2,6-difluorophenyl)-5-((3R)-tetrahydro-2H-pyran-3-yl)-4H-1,2,4-triazol-3-yl)-3-(5-methyl-2-pyrimidinyl)-2-butanesulfonamide [Example 23.0]”: the EC50 was 110 nM.

Consider “(2S,3R)-N-(4-(2,6-dimethoxyphenyl)-5-((R)-1,1-dioxidotetahydrothiophen-3-yl)-4H-1,2,4-triazol-3-yl)-3-(5-methylpyrimidin-2-yl)butane-2-sulfonamide or (2S,3R)-N-(4-(2,6-dimethoxyphenyl)-5-((S)-1,1-dioxidotetrahydrothiophen-3-yl)-4H-1,2,4-triazol-3-yl)-3-(5-methylpyrimidin-2-yl)butane-2-sulfonamide [Example 184.0]”, for which the EC50 was found to be 1380 nM.

On to “(2S,3R)-N-(4-(2,6-dimethoxyphenyl)-5-((R)-1,1-dioxidotetrahydrothiophen-3-yl)-4H-1,2,4-triazol-3-yl)-3-(5-methylpyrimidin-2-yl)butane-2-sulfonamide or (2S,3R)-N-(4-(2,6-dimethoxyphenyl)-5-((S)-1,1-dioxidotetrahydrothiophen-3-yl)-4H-1,2,4-triazol-3-yl)-3-(5-methylpyrimidin-2-yl)butane-2-sulfonamide [Example 183.0]”, for which the EC50 is 1060 nM.

On to “(2S,3R)-N-(4-(2,6-dimethoxyphenyl)-5-((R)-1,4-dioxan-2-yl)-4H-1,2,4-triazol-3-yl)-3-(5-methoxypyrazin-2-yl)butane-2-sulfonamide or (2S,3R)-N-(4-(2,6-dimethoxyphenyl)-5-((S)-1,4-dioxan-2-yl)-4H-1,2,4-triazol-3-yl)-3-(5-methoxypyrazin-2-yl)butane-2-sulfonamide [Example 207.0]”, for which the 50% effective concentration (EC50) came out at 4.8 nM.

As for “(2S,3R)-N-(4-(2,6-dimethoxyphenyl)-5-((R)-1,4-dioxan-2-yl)-4H-1,2,4-triazol-3-yl)-3-(5-methoxypyrazin-2-yl)butane-2-sulfonamide or (2S,3R)-N-(4-(2,6-dimethoxyphenyl)-5-((S)-1,4-dioxan-2-yl)-4H-1,2,4-triazol-3-yl)-3-(5-methoxypyrazin-2-yl)butane-2-sulfonamide [Example 208.0]”, the EC50 was 20 nM.

Consider “(2S,3R)-N-(4-(2,6-dimethoxyphenyl)-5-((R)-1,4-dioxan-2-yl)-4H-1,2,4-triazol-3-yl)-3-(5-methylpyrimidin-2-yl)butane-2-sulfonamide or (2S,3R)-N-(4-(2,6-dimethoxyphenyl)-5-((S)-1,4-dioxan-2-yl)-4H-1,2,4-triazol-3-yl)-3-(5-methylpyrimidin-2-yl)butane-2-sulfonamide [Example 205.0]”, for which the concentration for a half-maximal effect (EC50) was 19 nM.

With “(2S,3R)-N-(4-(2,6-dimethoxyphenyl)-5-((S)-tetrahydrothiophen-2-yl)-4H-1,2,4-triazol-3-yl)-3-(5-methylpyrimidin-2-yl)butane-2-sulfonamide or (2S,3R)-N-(4-(2,6-dimethoxyphenyl)-5-((R)-tetrahydrothiophen-2-yl)-4H-1,2,4-triazol-3-yl)-3-(5-methylpyrimidin-2-yl)butane-2-sulfonamide [Example 223.0]”, the EC50 is 12 nM.

For “(2S,3R)-N-(4-(2,6-dimethoxyphenyl)-5-((S)-tetrahydrothiophen-2-yl)-4H-1,2,4-triazol-3-yl)-3-(5-methylpyrimidin-2-yl)butane-2-sulfonamide or (2S,3R)-N-(4-(2,6-dimethoxyphenyl)-5-((R)-tetrahydrothiophen-2-yl)-4H-1,2,4-triazol-3-yl)-3-(5-methylpyrimidin-2-yl)butane-2-sulfonamide [Example 224.0]”, the EC50 stood at 1.5 nM.
